Experimental data as given in article PMC6804443 (Acta Pharmaceutica Sinica. B, 2019).
Entries after “also recorded” stand apart in the source; their conditions may differ.

Tests used:
[1] = biological target: T1, UGT1A9 (Homo sapiens, UniProt O60656); test: UGT1A9 inhibition by XueBiJing compounds, cDNA-expressed enzyme [4-MU→4-MUG]; format: in vitro ADME
T1 sequence (O60656 26-530): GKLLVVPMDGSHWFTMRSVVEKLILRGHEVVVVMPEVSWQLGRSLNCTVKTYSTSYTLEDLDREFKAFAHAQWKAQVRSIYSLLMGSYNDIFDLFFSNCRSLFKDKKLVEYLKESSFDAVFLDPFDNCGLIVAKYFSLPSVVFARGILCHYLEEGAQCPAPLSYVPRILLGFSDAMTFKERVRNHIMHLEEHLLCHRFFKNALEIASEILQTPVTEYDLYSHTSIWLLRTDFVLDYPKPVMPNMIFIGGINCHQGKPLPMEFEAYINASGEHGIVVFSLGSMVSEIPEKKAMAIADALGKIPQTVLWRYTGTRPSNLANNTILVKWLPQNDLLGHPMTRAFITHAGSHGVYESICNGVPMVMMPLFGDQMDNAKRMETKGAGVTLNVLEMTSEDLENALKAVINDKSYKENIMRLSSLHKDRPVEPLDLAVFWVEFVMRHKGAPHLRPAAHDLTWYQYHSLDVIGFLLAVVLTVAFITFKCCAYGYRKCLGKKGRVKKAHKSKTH

[2] = tested on: CYP1A2; conditions: higher concentrations; range over the named compounds and enzymes
[3] = biological target: T2, OATP1B3 (Homo sapiens, UniProt Q9NPD5)
T2 sequence (Q9NPD5 1-702): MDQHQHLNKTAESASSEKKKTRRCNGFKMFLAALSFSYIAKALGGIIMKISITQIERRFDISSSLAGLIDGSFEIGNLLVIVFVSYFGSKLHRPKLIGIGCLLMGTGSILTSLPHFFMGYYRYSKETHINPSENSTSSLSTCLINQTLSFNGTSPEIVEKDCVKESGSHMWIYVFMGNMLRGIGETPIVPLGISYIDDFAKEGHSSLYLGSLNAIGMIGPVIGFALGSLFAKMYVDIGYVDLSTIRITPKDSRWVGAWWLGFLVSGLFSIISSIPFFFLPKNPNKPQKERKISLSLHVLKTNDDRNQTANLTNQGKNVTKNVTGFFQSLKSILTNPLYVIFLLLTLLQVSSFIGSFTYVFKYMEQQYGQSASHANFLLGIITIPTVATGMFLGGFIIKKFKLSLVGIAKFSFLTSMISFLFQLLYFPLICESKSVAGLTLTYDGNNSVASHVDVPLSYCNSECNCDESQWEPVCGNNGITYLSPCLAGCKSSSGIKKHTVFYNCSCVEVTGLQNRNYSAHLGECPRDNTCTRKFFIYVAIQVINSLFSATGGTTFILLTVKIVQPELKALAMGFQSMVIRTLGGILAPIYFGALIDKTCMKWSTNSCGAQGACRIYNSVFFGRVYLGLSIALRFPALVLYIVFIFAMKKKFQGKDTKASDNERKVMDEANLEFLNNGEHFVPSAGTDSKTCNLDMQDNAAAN

[4] = biological target: T3, OAT3 (Homo sapiens, UniProt Q8TCC7); format: in vitro ADME
T3 sequence (Q8TCC7 1-542): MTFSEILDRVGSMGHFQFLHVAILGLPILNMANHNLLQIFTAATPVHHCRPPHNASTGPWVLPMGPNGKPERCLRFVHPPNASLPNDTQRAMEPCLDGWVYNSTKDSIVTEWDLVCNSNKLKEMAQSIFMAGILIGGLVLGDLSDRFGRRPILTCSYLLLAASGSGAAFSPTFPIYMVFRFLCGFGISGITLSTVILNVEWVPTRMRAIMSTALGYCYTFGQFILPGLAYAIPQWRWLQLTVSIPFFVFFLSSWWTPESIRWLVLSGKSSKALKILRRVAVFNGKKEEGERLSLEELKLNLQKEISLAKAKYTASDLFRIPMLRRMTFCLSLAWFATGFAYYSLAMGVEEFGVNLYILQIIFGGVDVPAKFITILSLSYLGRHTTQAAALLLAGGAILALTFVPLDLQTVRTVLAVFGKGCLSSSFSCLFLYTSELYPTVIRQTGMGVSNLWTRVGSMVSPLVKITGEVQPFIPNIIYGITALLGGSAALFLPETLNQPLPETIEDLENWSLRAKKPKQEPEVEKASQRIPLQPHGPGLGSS

[5] = cited from earlier work
[6] = biological target: T4, CYP2C19 (Homo sapiens, UniProt P33261); test: CYP2C19 inhibition by XueBiJing compounds, cDNA-expressed enzyme [CEC→CHC]; format: in vitro ADME
T4 sequence (P33261 whole entry): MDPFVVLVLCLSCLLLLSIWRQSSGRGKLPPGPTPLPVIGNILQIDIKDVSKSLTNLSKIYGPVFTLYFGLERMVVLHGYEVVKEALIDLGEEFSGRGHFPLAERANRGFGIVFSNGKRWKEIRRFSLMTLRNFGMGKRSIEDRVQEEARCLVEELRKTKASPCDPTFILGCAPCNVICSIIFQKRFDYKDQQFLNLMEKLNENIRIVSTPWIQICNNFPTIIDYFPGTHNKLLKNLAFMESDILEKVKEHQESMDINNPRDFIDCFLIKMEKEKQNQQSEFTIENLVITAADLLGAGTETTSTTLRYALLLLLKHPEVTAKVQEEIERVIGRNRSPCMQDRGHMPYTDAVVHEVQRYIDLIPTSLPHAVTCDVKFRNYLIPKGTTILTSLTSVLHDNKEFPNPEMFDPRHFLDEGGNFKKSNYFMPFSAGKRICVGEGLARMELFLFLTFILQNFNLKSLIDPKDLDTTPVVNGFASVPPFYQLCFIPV

[7] = biological target: T4, CYP2C19; format: in vitro ADME
[8] = biological target: T2, OATP1B3; test: in vitro; format: in vitro ADME
[9] = biological target: CYP2C9 (Homo sapiens, UniProt P11712); format: in vitro ADME
CYP2C9, sequence (P11712 whole entry): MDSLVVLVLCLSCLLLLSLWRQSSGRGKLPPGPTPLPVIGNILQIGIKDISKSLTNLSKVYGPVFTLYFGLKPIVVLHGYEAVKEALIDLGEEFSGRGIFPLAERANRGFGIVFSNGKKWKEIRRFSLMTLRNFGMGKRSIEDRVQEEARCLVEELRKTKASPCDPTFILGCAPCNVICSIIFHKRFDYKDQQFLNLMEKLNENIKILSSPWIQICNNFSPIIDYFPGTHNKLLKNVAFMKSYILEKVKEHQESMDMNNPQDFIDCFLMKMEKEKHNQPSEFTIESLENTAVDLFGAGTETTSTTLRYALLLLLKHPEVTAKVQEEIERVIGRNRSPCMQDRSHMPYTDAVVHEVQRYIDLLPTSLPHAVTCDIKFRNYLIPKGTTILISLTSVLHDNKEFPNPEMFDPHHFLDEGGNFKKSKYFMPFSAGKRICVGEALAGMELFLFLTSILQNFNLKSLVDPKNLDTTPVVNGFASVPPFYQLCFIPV

[10] = tested on: P450 enzymes, UGTs, SULTs, OATP1B1/1B3, OAT1/3, OCT2, MATE1/2-K, MDR1, BCRP; conditions: cited from earlier work
[11] = biological target: T5, UGT1A1 (Homo sapiens, UniProt P22309); test: UGT1A1 inhibition by XueBiJing compounds, cDNA-expressed enzyme [E2→E23βG]; format: in vitro ADME
T5 sequence (P22309 26-533): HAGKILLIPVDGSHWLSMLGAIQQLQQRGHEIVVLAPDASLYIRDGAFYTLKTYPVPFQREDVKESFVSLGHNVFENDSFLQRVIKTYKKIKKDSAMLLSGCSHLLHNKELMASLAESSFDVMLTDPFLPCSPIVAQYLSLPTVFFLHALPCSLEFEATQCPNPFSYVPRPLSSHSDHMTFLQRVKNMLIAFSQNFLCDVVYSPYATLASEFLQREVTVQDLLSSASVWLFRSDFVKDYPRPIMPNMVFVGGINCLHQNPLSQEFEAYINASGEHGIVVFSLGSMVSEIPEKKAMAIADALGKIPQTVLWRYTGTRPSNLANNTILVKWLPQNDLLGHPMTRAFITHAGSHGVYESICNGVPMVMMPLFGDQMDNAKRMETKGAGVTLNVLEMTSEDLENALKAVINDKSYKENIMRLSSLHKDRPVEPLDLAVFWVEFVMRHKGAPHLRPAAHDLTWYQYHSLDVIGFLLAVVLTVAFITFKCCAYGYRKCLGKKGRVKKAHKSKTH

[12] = biological target: OATP1B1 (Homo sapiens, UniProt Q9Y6L6); test: OATP1B1 inhibition by XueBiJing compounds, transfected HEK293 cells [E217βG]; format: in vitro ADME
OATP1B1, sequence (Q9Y6L6 whole entry, the tested form may be a part): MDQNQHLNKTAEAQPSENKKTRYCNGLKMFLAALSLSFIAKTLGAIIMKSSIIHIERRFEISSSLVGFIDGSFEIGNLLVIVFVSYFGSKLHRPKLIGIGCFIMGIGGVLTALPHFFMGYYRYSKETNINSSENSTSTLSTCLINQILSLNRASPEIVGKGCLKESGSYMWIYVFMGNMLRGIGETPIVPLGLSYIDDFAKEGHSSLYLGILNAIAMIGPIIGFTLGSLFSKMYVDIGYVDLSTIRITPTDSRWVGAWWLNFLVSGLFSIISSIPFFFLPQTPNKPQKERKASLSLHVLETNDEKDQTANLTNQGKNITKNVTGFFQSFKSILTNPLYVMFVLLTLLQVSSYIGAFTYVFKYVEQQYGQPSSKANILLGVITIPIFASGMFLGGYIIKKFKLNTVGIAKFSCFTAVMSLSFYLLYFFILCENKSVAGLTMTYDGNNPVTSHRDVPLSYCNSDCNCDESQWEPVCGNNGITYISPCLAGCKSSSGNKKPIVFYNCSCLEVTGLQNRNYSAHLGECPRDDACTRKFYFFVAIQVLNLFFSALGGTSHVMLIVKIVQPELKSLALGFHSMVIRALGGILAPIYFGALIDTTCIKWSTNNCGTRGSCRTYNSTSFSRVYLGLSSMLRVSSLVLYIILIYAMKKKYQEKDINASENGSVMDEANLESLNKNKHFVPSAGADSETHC

[13] = human, XueBiJing 100 mL via 75-min intravenous infusion

IC50 [1]: 3 ± 1 µM
inhibition at 100 μmol/L ([1]; human, cDNA-expressed UGT1A9, probe 4-MU (10 μmol/L), 4-MUG formed): > 90%
mRNA-T/U ratio, CYP1A2 [2]: 4.0 to 9.6
IC50 [3]: 18 ± 4 µM
IC50 [4]: 31 ± 8 µM
IC50 [6]: 19 ± 4 µM
inhibition at 100 μmol/L ([6]; human, cDNA-expressed CYP2C19, probe CEC (25 μmol/L)): 68 to 80%
Time-dependent inhibition of CYP2C19 [7]: negligible
Km [8]: 14 µM
Time-dependent inhibition of CYP2C9 [9]: negligible
IC50 [11]: 10 ± 1 µM
inhibition at 100 μmol/L ([11]; human, cDNA-expressed UGT1A1, probe E2 (20 μmol/L), E23βG formed): > 90%
IC50 [12]: 38 ± 3 µM
SMILES: O=C(/C=C/c1ccc(O)c2c1[C@H](C(=O)O[C@H](Cc1ccc(O)c(O)c1)C(=O)O)[C@@H](c1ccc(O)c(O)c1)O2)O[C@H](Cc1ccc(O)c(O)c1)C(=O)O [X10, salvianolic acid B]
fu-p (unbound fraction in plasma) ([5]; human plasma): 3%
Cmax [5, 13]: 100 nM
VSS [5, 13]: 1.28 L/kg
t1/2 [5, 13]: 12 min
Major elimination route ([5]; human): Hepatobiliary excretion; also recorded: Hepatic methylation
Related metabolism and transport data (substrate status) [10]: Highly selective OATP1B3 substrate; also recorded: COMT substrate
